# Test results reported in article PMC9729826, “Hypoaminoacidemia underpins glucagon-mediated energy expenditure and weight loss” (Cell Reports Medicine, 2022).
# Starred links: 1 amine or outer side, 2 acyl side, 3 side chain; linkers in the order of their positions; H or OH if unused. Non-standard residues stand in square brackets, D forms with d. Residues, ends and D or L forms follow the SMILES beside them. Groups on a side chain read outwards from the residue. *: point of attachment. C18 diacid = O=C(O)CCCCCCCCCCCCCCCCC(=O)*; γGlu = O=C(O)[C@H](CCC(=O)[*:2])N[*:1]; Aib = CC(C)(N)C(=O)O
# Columns and labels:
# lean C57BL/6 mice [1] = assay: Chronic low-dose (5 nmol/kg) G108 study in lean mice; type: in vivo, mouse; conditions: 5 nmol/kg s.c. daily
# Description: For the low-dose G108 (5 nmol/kg) study, C57BL/6 mice matched for weight and age (14-week-old, N = 14) were single housed and split into two treatment groups (N = 7/group). All mice were subcutaneously administered with the allocated treatment daily at 9 am for 21 days. Mice were administered with vehicle control (HPLC water) or 5 nmol/kg G108 (diluted in sterile HPLC water). All mice had ad libitum access to a standard protein diet containing 20 kcal% protein (diet D11112201) (Table S2). Food intake and body weight were measured daily prior to treatment each day. EchoMRI analysis was carried out at baseline and days 7, 14 and 21. Tail venesection was carried out on day 7 of study, pre- and 4 h post treatment dose. Blood samples were immediately transferred on ice, centrifuged at 2800 × g for 10 min prior to plasma total amino acid analysis. Forelimb grip strength testing was performed at baseline, day 14 and day 21. On day 21, following a 4 h fast, mice were culled, and the following muscle groups dissected and weighed: quadriceps, gastrocnemius, soleus, tibialis anterior, extensor digitorum longus.
# (§1) Food intake was measured daily using a dedicated weighing scale and topped up accordingly. Body weight was recorded at 9 am daily or every 48 h using the same weighing scale. Body composition was measured using an EchoMRI analyser at various timepoints during chronic studies. Body composition measurements were taken on the same time of day to reduce intra-animal variability. Animals were placed in a transparent cylindrical Perspex tube and both ends secured with Perspex clips. The tubes containing the animal was then carefully placed into the MRI machine (EchoMRI −100H analyser, EchoMRI). Each scan lasted approximately 90 s where lean mass and fat mass were recorded in grams. Following the scan, the mice were removed from the Perspex tube and returned to their respective cages.
# A grip strength meter (Bioseb, France) was used to measure grip strength. […] The maximum force, measured in g was recorded. Four consecutive measurements were made with a 1 min rest interval. An average of measurements was taken for each timepoint prior to subsequent analysis.
# Plasma total amino acids were measured using fluorometric-based ELISA kits as described (MAK002, Sigma-Aldrich, Ab65347, Abcam). Plasma FGF21 was measured using a fluorescent based ELISA kit (ab229382, Abcam). Plasma triglyceride, cholesterol and leptin were measured using ELISA kits (ab65336, ab65390, ab199082, Abcam). Individual amino acids were measured using Gas Chromatography/Mass Spectrometry (WellChild laboratory, Evelina Children’s Hospital, St Thomas’s Hospital, London).
# lean C57BL/6 mice [2] = assay: 18-day dose-finding study of food intake in lean mice; type: in vivo, mouse
# Description: C57BL/6 mice matched for weight and age (14-week-old, N = 24) were administered via subcutaneous injection at 9 am daily for 18 days, vehicle control or G108 diluted in sterile HPLC water. Ascending doses of either 5 nmol/kg, 10 nmol/kg or 20 nmol/kg G018 were administered. All mice had ad libitum access to RM1 diet (Special Diet Services, UK) and water. Food intake and body weights were recorded daily.
# as §1
# lean C57BL/6 mice [3] = assay: Hepatic gene expression 24 h after a single dose in lean mice; type: in vivo, mouse; conditions: 20 nmol/kg single s.c. dose, liver at 24 h, qPCR, n = 4/group
# Description: Twelve weight-matched 12-week-old lean C57BL/6 mice were fasted for 2 h prior to a single intraperitoneal injection of 10 nmol/kg dose of G108 diluted in sterile HPLC water (pH > 7), or vehicle control alone. Tail venesection was performed at baseline, 15, 30, 60 and 120 min and blood glucose measured using a handheld GlucoRx meter. For hepatic carbohydrate and amino acid metabolism gene expression analysis, weight-matched 12-week-old lean C57BL/6 mice were subcutaneously administered with 20 nmol/kg G108 diluted in sterile HPLC water (pH > 7), or vehicle control via subcutaneous injection at 9 am (N = 8). All animals had ad libitum access to RM1 diet and water. Liver tissue was dissected at 24 h and stored at −80°C prior to hepatic gene expression analysis.
# RNA was extracted from liver, muscle and BAT tissue using 1 mL TRIzol added to samples prior to homogenisation within a mechanical homogeniser for 2–3 min. Chloroform was added to each individual sample prior to gentle shaking and centrifugation at 16000 × g for 15 min. […] RNA was quantified in addition to quality assessed using a NanoDrop spectrophotometer and 1 μg of RNA was then used for the synthesis of cDNA using the iScript cDNA synthesis Kit (Bio-Rad). Quantitative polymerase chain reaction (qPCR) was then undertaken using the SYBR-Green method using KiCqStart SYBR Green primers (Merck).
# [4] = Pharmacokinetic profile of G108 in rats (plasma radioimmunoassay); conditions: rat, in vivo, sc, male Wistar rats, single 0.5 mg subcutaneous dose, sampled 1.5-72 h, n = 4, read-out: time at which peak plasma concentrations were achieved
# Description: 10-week-old male Wistar rats (N = 4) were administered with 0.5 mg G108 via 100 μL subcutaneous injection. Tail venesection was performed to collect 100 μL blood samples prior to injection and at 1.5, 3, 6, 24, 48 and 72 h after injection. Blood samples were immediately frozen on ice, centrifuged at 8000 × g for 10 min at 4°C, and the plasma supernatant collected. Samples were stored at −20°C.
# An in-house radioimmunoassay was used to determine peptide concentrations in the rat plasma. Antiserum (RA553/3) was produced in rabbits against the purified glucagon (1–16) fragment which specifically cross-reacted with the N-terminal glucagon-like sequence of G108. Direct iodination was used to produce Iodine-125 glucagon which was purified by reverse phase high pressure liquid chromatography. The assay was performed in a total volume of 700 μL of 0.06 M phosphate EDTA buffer containing 0.3% BSA. All samples were assayed in duplicate and the standard curve was set using 5 pmol/mL G108 in assay buffer. The assay was incubated for 3 nights at 4°C prior to separation via charcoal into free and antibody-bound label. A γ-counter was used to count the pellet and supernatant and the ratio of free to bound label was calculated. The plasma peptide concentration was calculated using two phase exponential decay with respect to the relevant standard curve.
smiles,measurement,setting,value
CC[C@H](C)[C@H](NC(=O)[C@H](Cc1ccccc1)NC(=O)[C@H](CCC(=O)O)NC(=O)[C@H](CCC(N)=O)NC(=O)[C@H](C)NC(=O)[C@H](CCCNC(=N)N)NC(=O)[C@H](CCCCN)NC(=O)[C@H](C)NC(=O)[C@H](CC(=O)O)NC(=O)[C@H](CC(C)C)NC(=O)[C@H](Cc1ccc(O)cc1)NC(=O)[C@H](CCCNC(=N)N)NC(=O)[C@H](CO)NC(=O)[C@H](Cc1ccc(O)cc1)NC(=O)[C@H](CC(=O)O)NC(=O)[C@H](CO)NC(=O)[C@@H](NC(=O)[C@H](Cc1ccccc1)NC(=O)[C@@H](NC(=O)CNC(=O)[C@H](Cc1c[nH]cn1)NC(=O)C(C)(C)NC(=O)[C@@H](N)Cc1c[nH]cn1)[C@@H](C)O)[C@@H](C)O)C(=O)N[C@@H](CCC(=O)O)C(=O)N[C@@H](Cc1c[nH]c2ccccc12)C(=O)N[C@@H](CC(C)C)C(=O)N[C@@H](CC(C)C)C(=O)N[C@@H](CCC(N)=O)C(=O)N[C@@H](CO)C(=O)N[C@@H](Cc1c[nH]cn1)C(=O)N[C@@H](Cc1c[nH]cn1)C(=O)N[C@@H](CCC(N)=O)C(=O)N[C@@H](Cc1c[nH]cn1)C(=O)N[C@@H](Cc1c[nH]cn1)C(=O)N1CCC[C@H]1C(=O)N[C@@H](CO)C(=O)N1CCC[C@H]1C(=O)N1CCC[C@H]1C(=O)N1CCC[C@H]1C(=O)N[C@@H](CCCCNC(=O)[C@H](CC(N)=O)NC(=O)CC[C@H](NC(=O)CCCCCCCCCCCCCCCCC(=O)O)C(=O)O)C(N)=O [Peptide G108] (H-H[Aib]HGTFTSDYSRYLDAKRAQEFIEWLLQSHHQHHPSPPPK([Asn-γGlu-C18 diacid])-NH2; N-terminus and C-terminus assumed),"body composition (lean mass, EchoMRI)","lean C57BL/6 mice [1]; 21 days, n = 7/group",reduced lean mass
same,body weight gain compared with vehicle,"lean C57BL/6 mice [1]; 21 days, n = 7/group",prevented weight gain
same,plasma total amino acids,"lean C57BL/6 mice [1]; day 7, n = 7/group",sustained reduction in plasma amino acids
same,weight of the quadriceps and gastrocnemius muscles,"lean C57BL/6 mice [1]; day 21, n = 7/group",reduced
same,forelimb grip strength,"lean C57BL/6 mice [1]; days 14 and 21, n = 7/group",reduced
same,food intake,lean C57BL/6 mice [2]; 5 nmol/kg s.c. daily,no effect on food intake
same,food intake,"lean C57BL/6 mice [2]; 10 nmol/kg s.c. daily, 18 days, n = 6/group",sustained reduction in food intake
same,food intake,"lean C57BL/6 mice [2]; 20 nmol/kg s.c. daily, 18 days, n = 6/group",sustained reduction in food intake
same,expression of hepatic amino acid catabolism (urea cycle) genes,lean C57BL/6 mice [3],increased the expression of a number of genes involved in amino acid catabolism
same,expression of hepatic gluconeogenic enzymes,lean C57BL/6 mice [3],increased the expression of hepatic gluconeogenic enzymes
same,Tmax,[4],24 h
